The NIST ThermoML archive (doi:10.1016/j.fluid.2015.09.035)

Experiment: excess molar enthalpy (molar enthalpy of mixing); xn = mol fraction of the nth substance listed
Conditions: Liquid, Flow calorimetry

C1CCCCC1 [cyclohexane] + CCCC(C)O
x2 = 0
Conditions | excess molar enthalpy [kcal/mol]
298.15 K | 0
313.15 K | 0

CCCC(C)O (centres undefined) [pentan-2-ol] + C1CCCCC1
excess molar enthalpy [kcal/mol]
Conditions | 298.15 K | 313.15 K
x1 = 0.0496 | 0.105 | 0.133
x1 = 0.1013 | 0.144 | 0.181
x1 = 0.151 | 0.169 | 0.208
x1 = 0.2008 | 0.189 | 0.229
x1 = 0.2506 | 0.205 | 0.246
x1 = 0.3003 | – | 0.258
x1 = 0.3005 | 0.218 | –
x1 = 0.3502 | – | 0.265
x1 = 0.3503 | 0.228 | –
x1 = 0.4001 | 0.232 | –
x1 = 0.4002 | – | 0.265
x1 = 0.4499 | 0.234 | –
x1 = 0.4501 | – | 0.265
x1 = 0.5001 | – | 0.259
x1 = 0.5002 | 0.228 | –
x1 = 0.5499 | 0.22 | –
x1 = 0.5501 | – | 0.251
x1 = 0.6001 | – | 0.236
x1 = 0.6002 | 0.207 | –
x1 = 0.6501 | 0.187 | –
x1 = 0.6502 | – | 0.219
x1 = 0.7002 | 0.166 | –
x1 = 0.7003 | – | 0.198
x1 = 0.7504 | 0.146 | –
x1 = 0.7505 | – | 0.171
x1 = 0.8007 | 0.121 | 0.144
x1 = 0.8509 | 0.0932 | –
x1 = 0.851 | – | 0.11
x1 = 0.9013 | 0.0625 | 0.0756
x1 = 0.9496 | 0.0302 | 0.0394
x1 = 1 | 0 | 0

CCCC(C)O (centres undefined) [pentan-2-ol] + Cc1ccccc1
excess molar enthalpy [kcal/mol]
Conditions | 298.15 K | 313.15 K
x1 = 0.0508 | 0.149 | 0.154
x1 = 0.0998 | 0.226 | –
x1 = 0.0999 | – | 0.245
x1 = 0.151 | 0.276 | 0.307
x1 = 0.2002 | 0.31 | –
x1 = 0.2003 | – | 0.346
x1 = 0.2496 | 0.335 | 0.375
x1 = 0.3009 | 0.354 | –
x1 = 0.301 | – | 0.397
x1 = 0.3506 | 0.367 | 0.408
x1 = 0.4003 | 0.373 | 0.414
x1 = 0.4501 | 0.373 | –
x1 = 0.4502 | – | 0.414
x1 = 0.5001 | 0.369 | 0.407
x1 = 0.5501 | 0.359 | –
x1 = 0.5502 | – | 0.394
x1 = 0.6003 | 0.344 | 0.377
x1 = 0.6505 | – | 0.353
x1 = 0.6506 | 0.32 | –
x1 = 0.701 | 0.293 | 0.32
x1 = 0.7495 | 0.259 | 0.282
x1 = 0.8002 | 0.22 | 0.239
x1 = 0.8509 | 0.173 | –
x1 = 0.851 | – | 0.187
x1 = 0.8996 | 0.12 | –
x1 = 0.8998 | – | 0.132
x1 = 0.9508 | 0.0597 | –
x1 = 0.9509 | – | 0.0661
x1 = 1 | 0 | 0

Cc1ccccc1 [toluene] + CCCC(C)O
x2 = 0
Conditions | excess molar enthalpy [kcal/mol]
298.15 K | 0
313.15 K | 0
